Assay results as given in patent publication US20020035061A1, “COMPOSITIONS AND METHODS FOR TREATING INFECTIONS USING CATIONIC PEPTIDES ALONE OR IN COMBINATION WITH ANTIBIOTICS” (priority 1996, published 2002).
Like-named read-outs stand apart in the source and are kept apart here.

What was measured:
Assay type in all cases: cell-based
A. calcoaceticus = system: A. calcoaceticus
E. cloacae = system: E. cloacae
E. coli = system: E. coli
E. faecalis = system: E. faecalis
K. pneumoniae = system: K. pneumoniae
P. aeruginosa = system: P. aeruginosa
S. aureus = system: S. aureus
S. epidermidis = system: S. epidermidis
S. maltophilia = system: S. maltophilia
S. marcescens = system: S. marcescens

Sequence | MIC (A. calcoaceticus; A. calcoaceticus AC002) | MIC (E. cloacae; E. cloacae ECL007) | MIC (E. coli; E. coli ECO005) | MIC (E. faecalis; E. faecalis EFS001) | MIC (E. faecalis; E. faecalis EFS008) | MIC (K. pneumoniae; K. pneumoniae KP001) | MIC (P. aeruginosa; P. aeruginosa PA004) | MIC (S. aureus; S. aureus SA014) | MIC (S. aureus; S. aureus SA093) | MIC (S. epidermidis; S. epidermidis SE010) | MIC (S. maltophilia; S. maltophilia SMA002) | MIC (S. marcescens; S. marcescens SMS003) | further results
PRIWKPKWRLPKR [MBI 11J01CN] | 4 µg/mL | >128 µg/mL | 64 µg/mL | 128 µg/mL | >128 µg/mL | >128 µg/mL | >128 µg/mL | 16 µg/mL | 2 µg/mL | 32 µg/mL | >128 µg/mL | >128 µg/mL | –
RWWWPWRRK [MBI 11G28CN] | 2 µg/mL | >128 µg/mL | 8 µg/mL | 4 µg/mL | 32 µg/mL | 64 µg/mL | 128 µg/mL | 4 µg/mL | 1 µg/mL | 4 µg/mL | 32 µg/mL | >128 µg/mL | –
WPWWPWRRK [MBI 11G27CN] | 2 µg/mL | >128 µg/mL | 16 µg/mL | 8 µg/mL | 32 µg/mL | 32 µg/mL | 128 µg/mL | 4 µg/mL | 1 µg/mL | 8 µg/mL | 32 µg/mL | >128 µg/mL | –
WWRWPWWPWRRK [MBI 11A10CN] | – | – | – | – | – | – | – | – | – | – | – | – | MIC (A. calcoaceticus; A. calcoaceticus strain AC002): 4 µg/mL; MIC (E. cloacae; E. cloacae strain ECL007): 64 µg/mL; MIC (E. coli; E. coli strain ECO005): 16 µg/mL; MIC (E. faecalis; E. faecalis strain EFS001): 4 µg/mL; MIC (E. faecalis; E. faecalis strain EFS008): 16 µg/mL; MIC (K. pneumoniae; K. pneumoniae strain KP001): 16 µg/mL; MIC (P. aeruginosa; P. aeruginosa strain PA004): 64 µg/mL; MIC (S. aureus; S. aureus strain SA014): 4 µg/mL; MIC (S. aureus; S. aureus strain SA093): 2 µg/mL; MIC (S. epidermidis; S. epidermidis strain SE010): 4 µg/mL; MIC (S. maltophilia; S. maltophilia strain SMA002): 32 µg/mL; MIC (S. marcescens; S. marcescens strain SMS003): >128 µg/mL
